Results taken from the supplement of paper PMC4862054.

Legend:
Details in all cases: incubation time: 72 h
BT-474 [1] = assay: normalised response (% of control), CellTiter-Glo; higher = more viable cells (100 = DMSO, 0 = benzethonium chloride kill control)
How it was run: (§1)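 After 72 h with compound in 384-well plates, breast cancer cell lines seeded as 20 µl suspension were read for CellTox Green fluorescence at 485/520 nm. CellTiter-Glo luminescence was then read after 10 min at room temperature. Compound was present at 5 concentrations in 10-fold steps over a 10,000-fold range set per compound, and plates were normalised to 0.1 % DMSO (100) and a positive kill control (0). Values are normalised signals, each at a single concentration.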

BT-549 [2] = assay: as above
How it was run: as §1

CAL-120 [3] = assay: as above
How it was run: as §1

CAL-148 [4] = assay: as above
How it was run: as §1

CAL-51 [5] = assay: as above
How it was run: as §1

CAL-85-1 [6] = assay: as above
How it was run: as §1

DU-4475 [7] = assay: as above
How it was run: as §1

HCC1143 [8] = assay: as above
How it was run: as §1

HCC1599 [9] = assay: as above
How it was run: as §1

HCC1937 [10] = assay: as above
How it was run: as §1

HDQ-P1 [11] = assay: as above
How it was run: as §1

Hs578T [12] = assay: as above
How it was run: as §1

MCF-10A = assay: as above
How it was run: as §1

MDA-MB-231 [13] = assay: as above
How it was run: as §1

MDA-MB-436 [14] = assay: as above
How it was run: as §1

MDA-MB-453 [15] = assay: as above
How it was run: as §1

MDA-MB-468 [16] = assay: as above
How it was run: as §1

MFM-223 [17] = assay: as above
How it was run: as §1

SK-BR-3 [18] = assay: as above
How it was run: as §1

BT-474 [19] = assay: normalised viability (% of control), CellTiter-Blue; higher = more viable cells (100 = DMSO, 0 = benzethonium chloride kill control)
How it was run: (§2)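 The reported figure is normalised viability at a single listed concentration of the series. Breast cancer cell lines (20 µl suspension) went onto 384-well plates holding compound in 5 µl medium for 72 h. CellTiter-Blue (2.5 µl, 2 h, 37 °C) was read by fluorescence at 560/590 nm, and each plate was scaled to vehicle at 100 and a positive kill control at 0.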

BT-549 [20] = assay: as above
How it was run: as §2

CAL-120 [21] = assay: as above
How it was run: as §2

CAL-148 [22] = assay: as above
How it was run: as §2

CAL-51 [23] = assay: as above
How it was run: as §2

CAL-85-1 [24] = assay: as above
How it was run: as §2

DU-4475 [25] = assay: as above
How it was run: as §2

HCC1143 [26] = assay: as above
How it was run: as §2

HCC1599 [27] = assay: as above
How it was run: as §2

HCC1937 [28] = assay: as above
How it was run: as §2

HDQ-P1 [29] = assay: as above
How it was run: as §2

Hs578T [30] = assay: as above
How it was run: as §2

MDA-MB-231 [31] = assay: as above
How it was run: as §2

MDA-MB-436 [32] = assay: as above
How it was run: as §2

MDA-MB-453 [33] = assay: as above
How it was run: as §2

MDA-MB-468 [34] = assay: as above
How it was run: as §2

MFM-223 [35] = assay: as above
How it was run: as §2

SK-BR-3 [36] = assay: as above
How it was run: as §2

Structure (SMILES) | normalised response (BT-474 [1]) | normalised response (BT-549 [2]) | normalised response (CAL-120 [3]) | normalised response (CAL-148 [4]) | normalised response (CAL-51 [5]) | normalised response (CAL-85-1 [6]) | normalised response (DU-4475 [7]) | normalised response (HCC1143 [8]) | normalised response (HCC1599 [9]) | normalised response (HCC1937 [10]) | normalised response (HDQ-P1 [11]) | normalised response (Hs578T [12]) | normalised response (MCF-10A) | normalised response (MDA-MB-231 [13]) | normalised response (MDA-MB-436 [14]) | normalised response (MDA-MB-453 [15]) | normalised response (MDA-MB-468 [16]) | normalised response (MFM-223 [17]) | normalised response (SK-BR-3 [18]) | normalised viability (BT-474 [19]) | normalised viability (BT-549 [20]) | normalised viability (CAL-120 [21]) | normalised viability (CAL-148 [22]) | normalised viability (CAL-51 [23]) | normalised viability (CAL-85-1 [24]) | normalised viability (DU-4475 [25]) | normalised viability (HCC1143 [26]) | normalised viability (HCC1599 [27]) | normalised viability (HCC1937 [28]) | normalised viability (HDQ-P1 [29]) | normalised viability (Hs578T [30]) | normalised viability (MDA-MB-231 [31]) | normalised viability (MDA-MB-436 [32]) | normalised viability (MDA-MB-453 [33]) | normalised viability (MDA-MB-468 [34]) | normalised viability (MFM-223 [35]) | normalised viability (SK-BR-3 [36])
O=C(O)CC[C@H]1CC[C@@](c2cc(F)ccc2F)(S(=O)(=O)c2ccc(Cl)cc2)CC1 [MK-0752] (0.1 nM) | 101% | 103% | 95.5% | 101% | 68.8% | 99.5% | 97.5% | 102% | 79.3% | 100% | 97.8% | 98.7% | 116% | 104% | 101% | 116% | 102% | 106% | 111% | 119% | 117% | 88.8% | 106% | 98.2% | 100% | 106% | 99.7% | 103% | 84.8% | 99.9% | 106% | 99.2% | 109% | 117% | 96.7% | 102% | 94.4%
Nc1nc(Cl)nc2c1ncn2[C@@H]1O[C@H](CO)[C@@H](O)[C@@H]1F [Clofarabine] (1 nM) | 101% | 94.8% | 101% | 90.5% | 79.9% | 97.4% | 99% | 96.7% | 90% | 98.1% | 98.3% | 103% | 107% | 101% | 97.4% | 106% | 94.9% | 101% | 99.1% | 89.5% | 93.7% | 90.4% | 91% | 108% | 87% | 101% | 87.1% | 101% | 93.7% | 118% | 116% | 90.3% | 100% | 107% | 111% | 93% | 91%
NC(=O)c1cccc2cn(-c3ccc([C@@H]4CCCNC4)cc3)nc12 [MK-4827] (1 nM) | 113% | 102% | 101% | 115% | 99.9% | 102% | 98.1% | 105% | 110% | 102% | 100% | 103% | 102% | 101% | 96.9% | 99.3% | 104% | 101% | 112% | 121% | 112% | 90.2% | 105% | 108% | 82.1% | 102% | 92.1% | 97.1% | 97.3% | 85.9% | 94.2% | 96% | 80.8% | 97.8% | 91.7% | 92.2% | 95.5%
COc1cc2c(Oc3ccc(NC(=O)C4(C(=O)Nc5ccc(F)cc5)CC4)cc3F)ccnc2cc1OCCCN1CCOCC1 [Foretinib] (0.1 nM) | 105% | 104% | 100% | 109% | 74.1% | 100% | 102% | 99% | 93.4% | 99.2% | 105% | 89.5% | 97.2% | 99.7% | 107% | 109% | 108% | 102% | 107% | 99.9% | 94.6% | 92.1% | 107% | 91.8% | 90.2% | 100% | 100% | 98.9% | 101% | 75.8% | 110% | 102% | 95.8% | 95% | 101% | 97% | 89%
